Earlier results in PubChem BioAssay AID1259409 (Chemical Carcinogenesis Research Information System (CCRIS), 2018).

Test system: rodent chemically induced tumor inhibition, incidence and multiplicity
Experiment: CCRIS tumor inhibitor studies
Conditions: Dose [Inhibitor]: 0

SMILES | tumour outcome (control, treated, inhibition, significance) (Carcinogen: (+/-)-7BETA,8ALPHA-DIHYDROXY-9ALPHA,10ALPHA-EPOXY-7,8,9,10-TETRAHYDROBENZO[A]PYR ENE, 58917-67-2, 1400 NMOL (TOTAL DOSE) 10 MIN PRIOR TO CARCINOGEN DOSE INJECTED AS 1/7, 2/7,AND 4/7 OF THE TOTAL ON DAYS 1, 8, AND 15, Route [Inhibitor]: INTRAPERITONEAL, Species: MOUSE, Strain/Sex: ICR/MALE,FEMALE, Target Tissue: Type of Lesion: LUNG: TUMOR, Dose [Carcinogen]: 30 NMOL (TOTAL DOSE) INJECTED IN DOSES OF 1/7, 2/7, AND 4/7 ON DAYS 1,8, AND 15 OF LIFE, RESPECTIVELY, Promoter: NONE USED) | tumour outcome (control, treated, inhibition, significance) (Carcinogen: (+/-)-7BETA,8ALPHA-DIHYDROXY-9ALPHA,10ALPHA-EPOXY-7,8,9,10-TETRAHYDROBENZO[A]PYR ENE, 58917-67-2, 1400 NMOL (TOTAL DOSE) APPLIED 10 MIN PRIOR TO CARCINOGEN DOSE INJECTED AS 1/7, 2/7, AND 4/7 OF THE TOTAL ON DAYS 1,, Route [Inhibitor]: INTRAPERITONEAL, Species: MOUSE, Strain/Sex: ICR/MALE,FEMALE, Target Tissue: Type of Lesion: LUNG: TUMOR, Dose [Carcinogen]: 15 NMOL (TOTAL DOSE) INJECTED IN DOSES OF 1/7, 2/7, AND 4/7 ON DAYS 1, 8, AND 15 OF LIFE, RESPECTIVELY, Promoter: NONE USED) | tumour outcome (control, treated, inhibition, significance) (Carcinogen: (+/-)-7BETA,8ALPHA-DIHYDROXY-9ALPHA,10ALPHA-EPOXY-7,8,9,10-TETRAHYDROBENZO[A]PYR ENE, 58917-67-2, 2500 NMOL IN 200 µL ACETONE:DMSO (90:10) ONCE APPLIED 5 MIN PRIOR TO CARCINOGEN DOSE (STUDY DURATION: 21 WK), Route [Inhibitor]: DERMAL, Species: MOUSE, Strain/Sex: CD-1/FEMALE, Target Tissue: Type of Lesion: SKIN: TUMOR, Dose [Carcinogen]: 200 NMOL IN ACETONE:DMSO (90:10) ONCE, Promoter: 12-O-TETRADECANOYLPHORBOL-13-ACETATE, 16561-29-8) | tumour outcome (control, treated, inhibition, significance) (Carcinogen: BENZO[A]PYRENE, 50-32-8, 1400 NMOL (TOTAL DOSE) APPLIED 10 MIN PRIOR TO CARCINOGEN DOSE INJECTED AS 1/7, 2/7, AND 4/7 OF THE TOTAL ON DAYS 1,, Route [Inhibitor]: INTRAPERITONEAL, Species: MOUSE, Strain/Sex: ICR/MALE,FEMALE, Target Tissue: Type of Lesion: LUNG: TUMOR, Dose [Carcinogen]: 450 NMOL (TOTAL DOSE) INJECTED IN DOSES OF 1/7, 2/7, AND 4/7 ON DAYS 1, 8, AND 15 OF LIFE, RESPECTIVELY, Promoter: NONE USED) | tumour outcome (control, treated, inhibition, significance) (Carcinogen: BENZO[A]PYRENE, 50-32-8, 2500 NMOL IN 200 µL ACETONE:DMSO (90:10) ONCE APPLIED 5 MIN PRIOR TO CARCINOGEN DOSE (STUDY DURATION: 21 WK), Route [Inhibitor]: DERMAL, Species: MOUSE, Strain/Sex: CD-1/FEMALE, Target Tissue: Type of Lesion: SKIN: TUMOR, Dose [Carcinogen]: 50 NMOL IN ACETONE:DMSO (90:10) ONCE, Promoter: 12-O-TETRADECANOYLPHORBOL-13-ACETATE, 16561-29-8) | tumour outcome (control, treated, inhibition, significance) (15.5 UMOL (FE) INJECTED WITH CARCINOGEN INTO THIGH OF BOTH HIND LIMBS (STUDY DURATION: 79 WK), Route [Inhibitor]: INTRAMUSCULAR, Species: RAT, Strain/Sex: F344/MALE, Target Tissue: Type of Lesion: INJECTION SITE: SARCOMA, Dose [Carcinogen]: 2.5 MG PER SITE INJECTED INTO THIGH OF BOTH HIND LIMBS ONCE, Promoter: NONE USED) | tumour outcome (control, treated, inhibition, significance) (30 UMOL (FE) INJECTED WITH CARCINOGEN INTO THIGH OF BOTH HIND LIMBS (STUDY DURATION: 79 WK), Route [Inhibitor]: INTRAMUSCULAR, Species: RAT, Strain/Sex: F344/MALE, Target Tissue: Type of Lesion: INJECTION SITE: SARCOMA, Dose [Carcinogen]: 2.5 MG PER SITE INJECTED INTO THIGH OF BOTH HIND LIMBS ONCE, Promoter: NONE USED) | tumour outcome (control, treated, inhibition, significance) (60 UMOL (FE) INJECTED INTO NAPE OF NECK (STUDY DURATION: 79 WK), Route [Inhibitor]: SUBCUTANEOUS, Species: RAT, Strain/Sex: F344/MALE, Target Tissue: Type of Lesion: INJECTION SITE: SARCOMA, Dose [Carcinogen]: 2.5 MG PER SITE INJECTED INTO THIGH OF BOTH HIND LIMBS, Promoter: NONE USED) | tumour outcome (control, treated, inhibition, significance) (60 UMOL (FE) INJECTED WITH CARCINOGEN INTO THIGH OF BOTH HIND LIMBS (STUDY DURATION: 79 WK), Route [Inhibitor]: INTRAMUSCULAR, Species: RAT, Strain/Sex: F344/MALE, Target Tissue: Type of Lesion: INJECTION SITE: SARCOMA, Dose [Carcinogen]: 2.5 MG PER SITE INJECTED INTO THIGH OF BOTH HIND LIMBS ONCE, Promoter: NONE USED)
O=c1c(O)c(-c2cc(O)c(O)c(O)c2)oc2cc(O)ccc12 | 93%, 50%, 46%, p<0.05 | 63%, 41%, 35%, p<0.05 | 59%, 68%, -15%, not significant | 73%, 79%, -8%, not significant | 50%, 54%, -8%, not significant | – | – | – | –
O=S(=O)([O-])[O-].O=S(=O)([O-])[O-].O=S(=O)([O-])[O-].[Fe+3].[Fe+3] | – | – | – | – | – | 100%, 98%, 2%, not significant | 100%, 45%, 55%, not calculated | 100%, 100%, 0%, not significant | 100%, 35%, 65%, not calculated
